Data set [1] in a line: Lipophilicity, log P of the compound. In kind it is physicochemical. The conditions noted are these: octanol/water.
The subject of data set [2] is Mycobacterium tuberculosis. Put plainly: microbe, parasite or virus in culture. In kind it is functional. To be noted: H37Rv ATCC 27294, 672 h.
Description: Antitubercular activity against Mycobacterium tuberculosis H37Rv ATCC 27294 after 28 days by agar dilution method
Data set [3] can be described thus: Cytotoxicity against HEK293T cells at 50 ug/ml after 72 hrs by MTT assay. The conditions noted are these: human, read-out: INH. In kind it is cell-based, HEK-293T.
Data set [4] in a line: Selectivity index, ratio of cytotoxicity against HEK293T cells to antitubercular activity against Mycobacterium tuberculosis H37Rv ATCC 27294. In kind it is toxicity, cell-based, HEK-293T. To be noted: human, read-out: Selectivity Index.

Converted amounts (≈) assume the structure as drawn. Some results are limits rather than exact numbers.

As for `CCCCc1cn(CC(=O)NC23CC4CC(CC(C4)C2)C3)nn1`, in data set [1], the logP is 2.68. Besides, in data set [2], the MIC stood at 50 µg/mL (≈ 158 µM).
Turning to `CCCCCc1cn(CC(=O)NC23CC4CC(CC(C4)C2)C3)nn1`, the logP in data set [1] was found to be 3.1. This compound also came in with an MIC in data set [2] of 50 µg/mL (≈ 151 µM).
In data set [1], `CCCCCCc1cn(CC(=O)NC23CC4CC(CC(C4)C2)C3)nn1` registered a log partition coefficient (logP) of 3.52. This compound also came in with an MIC in data set [2] of 50 µg/mL (≈ 145 µM).
In the case of `O=C(Cn1cc(CCCO)nn1)NC12CC3CC(CC(C3)C1)C2`, the logP in data set [1] was determined as 0.61. For the same compound, in data set [2], the MIC came out at 6.25 µg/mL (≈ 19.6 µM). For the same compound, the cytotoxicity at 72 h, 50 ug/ml in data set [3] is 20.7%. In addition, the selectivity ratio in data set [4] is more than 15.
Compound `O=C(Cn1cc(CCc2ccccc2)nn1)NC12CC3CC(CC(C3)C1)C2` came in with a logP in data set [1] of 3.03. The same compound displayed an MIC in data set [2] of 50 µg/mL (≈ 137 µM).
As to `O=C(Cn1cc(C2(O)CCCC2)nn1)NC12CC3CC(CC(C3)C1)C2`, the lipophilicity (logP) in data set [1] stood at 1.51. Further, in data set [2], the MIC amounted to 50 µg/mL (≈ 145 µM).
`O=C(Cn1cc(C2(O)CCCCC2)nn1)NC12CC3CC(CC(C3)C1)C2` gave a logP in data set [1] of 1.93. The same compound showed an MIC in data set [2] of 6.25 µg/mL (≈ 17.4 µM). Besides, the cytotoxicity at 72 h, 50 ug/ml in data set [3] was determined as 17.5%. The selectivity ratio in data set [4] is more than 15.
Compound `O=C(Cn1cc(-c2ccccc2)nn1)NC12CC3CC(CC(C3)C1)C2` showed a logP in data set [1] of 2.75. Moreover, the MIC in data set [2] worked out at 50 µg/mL (≈ 149 µM).
As for `CC(C)(C)c1ccc(-c2cn(CC(=O)NC34CC5CC(CC(C5)C3)C4)nn2)cc1`, the logP in data set [1] worked out at 4.46. This compound yielded an MIC in data set [2] of 50 µg/mL (≈ 127 µM).
For `COc1cccc(-c2cn(CC(=O)NC34CC5CC(CC(C5)C3)C4)nn2)c1`, the logP in data set [1] came to 2.63. In addition, the MIC in data set [2] was 25 µg/mL (≈ 68.2 µM).
The like results for `COc1ccc(-c2cn(CC(=O)NC34CC5CC(CC(C5)C3)C4)nn2)c(C)c1` were, in that order, 3.12 and 50 µg/mL (≈ 131 µM).
In turn, `O=C(Cn1cc(-c2ccc([N+](=O)[O-])cc2)nn1)NC12CC3CC(CC(C3)C1)C2` displayed an MIC in data set [2] of 50 µg/mL (≈ 131 µM).
The compound `O=C(Cn1cc(-c2ccc(F)cc2F)nn1)NC12CC3CC(CC(C3)C1)C2` registered a log partition coefficient (logP) in data set [1] of 3.07. This compound also displayed an MIC in data set [2] of 50 µg/mL (≈ 134 µM).
As to `O=C(Cn1cc(-c2ccc(F)c(F)c2)nn1)NC12CC3CC(CC(C3)C1)C2`, in data set [1], the logP amounted to 3.07. The compound also gave an MIC in data set [2] of 50 µg/mL (≈ 134 µM).
Turning to `O=C(Cn1cc(-c2ccc(C(F)(F)F)cc2)nn1)NC12CC3CC(CC(C3)C1)C2`, the logP in data set [1] stood at 3.68. This compound registered an MIC in data set [2] of 50 µg/mL (≈ 124 µM).
For `O=C(Cn1cc(-c2ccc(Cl)c(Cl)c2)nn1)NC12CC3CC(CC(C3)C1)C2` the same measures were 3.87 and 50 µg/mL (≈ 123 µM).
In data set [1], `CCCCCc1ccc(-c2cn(CC(=O)NC34CC5CC(CC(C5)C3)C4)nn2)cc1` gave a logP of 4.91. In addition, the MIC in data set [2] worked out at 6.25 µg/mL (≈ 15.4 µM). The cytotoxicity at 72 h, 50 ug/ml in data set [3] worked out at 18.7%. In data set [4], the selectivity ratio is more than 15.
`CC(=O)c1ccc(C)cc1OCc1cn(CC(=O)NC23CC4CC(CC(C4)C2)C3)nn1` came in with a logP in data set [1] of 2.55. Also, the MIC in data set [2] is 50 µg/mL (≈ 118 µM).
`COc1ccc2cc(-c3cn(CC(=O)NC45CC6CC(CC(C6)C4)C5)nn3)ccc2c1`: the logP in data set [1] was found to be 3.63. For the same compound, in data set [2], the MIC was found to be 50 µg/mL (≈ 120 µM).
The compound `O=C(Cn1cc(-c2cc3ccccc3c3ccccc23)nn1)NC12CC3CC(CC(C3)C1)C2` came in with a logP in data set [1] of 4.75. In addition, the MIC in data set [2] came out at 3.12 µg/mL (≈ 7.15 µM). Besides, the cytotoxicity at 72 h, 50 ug/ml in data set [3] came out at 20.1%. The selectivity ratio in data set [4] was more than 15.
As for `O=C(Cn1cc(-c2ccsc2)nn1)NC12CC3CC(CC(C3)C1)C2`, in data set [1], the logP amounted to 2.74. The same compound yielded an MIC in data set [2] of 50 µg/mL (≈ 146 µM).
As to `CC[C@@H](CO)NCCN[C@@H](CC)CO` [ETHAMBUTOL], the MIC in data set [2] amounted to 3.13 µg/mL (≈ 15.3 µM).
In data set [2], `NNC(=O)c1ccncc1` [ISONIAZID] registered an MIC of 0.1 µg/mL (≈ 0.729 µM).
In data set [2], `NC(=O)c1cnccn1` [PYRAZINAMIDE] came in with an MIC of 50 µg/mL (≈ 406 µM).

The record behind these values is ChEMBL document CHEMBL3232935, “Design, synthesis and evaluation of 1,2,3-triazole-adamantylacetamide hybrids as potent inhibitors of Mycobacterium tuberculosis” (Bioorg Med Chem Lett, 2014).
